Laboratory results reported in the Kinase Knowledgebase extract (Sharma et al. 2016).
Converted amounts (≈) assume the structure as drawn.

Molecular target: CDK2 (human) (UniProt P24941)
Experiment: Enzyme Assay

SMILES | IC50 [µg/mL]
CC(N)c1csc(C=NNc2ncnc3sc(C(C)(C)C)cc23)n1 (stereo not given) | 0.83 (≈ 2.3 µM)
CC(C)(C)c1cc2c(NN=Cc3nccs3)ncnc2s1 | 0.2 (≈ 0.63 µM)
CNCc1csc(C=NNc2ncnc3sc(C4CC4)cc23)n1 | > 2
CNCc1csc(C=NNc2ncnc3sc(C4CCC4)cc23)n1 | 1.4 (≈ 3.91 µM)
CNCc1cnc(C=NNc2ncnc3sc(C(C)(C)C)cc23)s1 | 0.35 (≈ 0.971 µM)
CCCC(C)c1cc2c(NN=Cc3nc(CNC)cs3)ncnc2s1 (stereo not given) | 1.4 (≈ 3.74 µM)
CNC(C)c1csc(C=NNc2ncnc3sc(C(C)(C)C)cc23)n1 (stereo not given) | 1.1 (≈ 2.94 µM)
CNCc1csc(C=NNc2ncnc3sc(C(C)(C)CF)cc23)n1 | 1.8 (≈ 4.76 µM)
CNCc1csc(C=NNc2ncnc3sc(C(C)C)cc23)n1 | 1.5 (≈ 4.33 µM)
CC(C)(C)c1cc2c(NN=Cc3cscn3)ncnc2s1 | 2.2 (≈ 6.93 µM)
CCC(N)c1csc(C=NNc2ncnc3sc(C(C)(C)C)cc23)n1 (stereo not given) | 1.4 (≈ 3.74 µM)
CC(C)(C)c1cc2c(NN=Cc3nc4c(s3)CNC4)ncnc2s1 | 0.2 (≈ 0.558 µM)
CNCc1csc(C=NNc2ncnc3sc(C(C)C(C)C)cc23)n1 (stereo not given) | 0.88 (≈ 2.35 µM)
CC(N)c1csc(C=NNc2ncnc3sc(C(C)(C)CF)cc23)n1 (stereo not given) | 0.68 (≈ 1.8 µM)
CN(C)Cc1csc(C=NNc2ncnc3sc(C(C)(C)C)cc23)n1 | 1.4 (≈ 3.74 µM)
CCC(C)c1cc2c(NN=Cc3nc(CNC)cs3)ncnc2s1 (stereo not given) | 0.44 (≈ 1.22 µM)
CC(C)(C)c1cc2c(NN=Cc3nc(C4CCNC4)cs3)ncnc2s1 (stereo not given) | 1.8 (≈ 4.66 µM)
CNCc1csc(C=NNc2ncnc3sc(C4CCCCC4)cc23)n1 | 0.81 (≈ 2.1 µM)
CC(C)(C)c1cc2c(NN=Cc3nc(C4CCNCC4)cs3)ncnc2s1 | 1.7 (≈ 4.24 µM)
CC(C)(C)c1cc2c(NN=Cc3cncs3)ncnc2s1 | 0.059 (≈ 0.186 µM)
CNCc1ccc(C=NNc2ncnc3sc(C(C)(C)C)cc23)cc1 | 0.68 (≈ 1.92 µM)
CNCc1csc(C=NNc2ncnc3sc(C(C)(C)CO)cc23)n1 | 1.8 (≈ 4.78 µM)
CC(C)(C)c1cc2c(NN=Cc3nc(C4CNC4)cs3)ncnc2s1 | 1 (≈ 2.68 µM)
CNCc1csc(C=NNc2ncnc3sc(C(C)(C)C)cc23)n1 | 0.98 (≈ 2.72 µM)
CC(C)(C)c1cc2c(NN=Cc3nc(CN)cs3)ncnc2s1 | 0.38 (≈ 1.1 µM)
